Measured values reported in patent US10450549B2, “Aryloxyphenoxypropionate tolerance in turfrgass species and use of AAD1 as a selectable marker” (Dow AgroSciences, LLC, priority 2004, dated 2019).

Tests used:
[1] = tested on: T4 Arabidopsis homozygous for AAD1 (v3) (line AAD1.01.315.076); assay: Foliar-applied auxinic herbicides on homozygous T4 AAD1 (v3) Arabidopsis, % injury 14 DAT; assay type: in vivo, Arabidopsis thaliana; conditions: AAD1.01.315.076.T4 homozygous AAD1 plants
Procedure, shortened: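 Homozygous T4 AAD1 (v3) Arabidopsis (line AAD1.01.315.076) and a PAT/Cry1F transformed control were grown in pots and track-sprayed foliarly at 187 L/ha with herbicides formulated in 200 mM Hepes pH 7.5. Injury was rated 14 days after treatment, with 3-4 replicates averaged over two experiments.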

[2] = tested on: Agrostis palustris var. Pencross; assay: Bentgrass plate test bioassay for herbicide degradation; assay type: in vivo; conditions: AAD1 (v1) extract
Method: Because of the selective nature of the herbicides being tested (i.e., monocot plants controlled by AOPP herbicides and dicot plants controlled by auxinic herbicides), wildtype Agrostis palustris var. Pencross and Arabidopsis thaliana var. Columbia were used as monocot and dicot test species, respectively. Each species is amenable to germination and growth in small Petri dishes.
Twenty to thirty sterilized seeds for each test species used were added onto a sterile, solidified agar Plate Test Medium (PTM) [2.5 mM KNO3, 2.5 mM KH2PO4, […], 10 mM NaEDTA (pH 8.0), 2 mM MgSO4, 2 mM Ca(NO3) 2, 70 μM H3BO3, 14 μM MnCl2, 0.5 μM CuSO4, 1 μM ZnSO4, 0.2 μM NaMoO4.2H2O, 10 μM NaCl, 10 nM CoCl2.H2O, 0.8% (w/v) sucrose, 0.4% agarose (w/v)] for bioassay in 60×15-mm Petri dishes (Falcon 1007). PTM was additionally modified by adding up to six rates of test herbicide standards or herbicide-enzyme test solution dilutions such that the four-fold concentration increments covered a rate range of three orders of magnitude with the GR50 rate (50% growth reduction) approximately in the center of the range.
For herbicide-enzyme test solutions, the maximal concentration was determined based on the nominal concentration before any subsequent enzymatic degradation would occur. Seeds were evenly spread by adding 3 ml of melted PTM of the same composition, swirling, and allowing to solidify. Plates were sealed and maintained under sterile conditions in a low light growth chamber (24 h day^−1, 100 μE/m^2s^1, 23° C.) for 7 days. Root length or root+shoot length were measured for five randomly chosen Arabidopsis and bentgrass plants, respectively, average mean length (percent of untreated control) vs. nominal herbicide concentration and GR50 determined.

In the case of Nc1c(Cl)c(F)nc(OCC(=O)O)c1Cl [Fluroxypyr], the “Ave % Injury 14DAT” value ([1]; 50 g ae/ha foliar) is reported as 48%, the “Ave % Injury 14DAT” value ([1]; 200 g ae/ha foliar) is reported as 75% and the “Ave % Injury 14DAT” value ([1]; 800 g ae/ha foliar) is reported as 88%. For the same compound, the “Ave % Injury 14DAT” value ([1]; 3200 g ae/ha foliar) was 95%.

For CC(Oc1ccc(Oc2ncc(C(F)(F)F)cc2Cl)cc1)C(=O)O (centres unmarked) [haloxyfop], the “herbicidal activity after AAD1 (v1) treatment, bentgrass plate bioassay” value [2] was “loss of herbicidal activity”.
